Results from ChEMBL document CHEMBL1268975, “Building a MCHR1 homology model provides insight into the receptor-antagonist contacts that are important for the development of new anti-obesity agents” (Bioorg Med Chem, 2010).

Target: Melanin-concentrating hormone receptor 1 (Homo sapiens, UniProt Q99705)
Experiment: biochemical
Type: cell-based, HEK293
Description: Displacement of [3H]SNAP-7941 from human MCHR1 expressed in HEK cells

Chain of Melanin-concentrating hormone receptor 1 (Q99705 whole entry): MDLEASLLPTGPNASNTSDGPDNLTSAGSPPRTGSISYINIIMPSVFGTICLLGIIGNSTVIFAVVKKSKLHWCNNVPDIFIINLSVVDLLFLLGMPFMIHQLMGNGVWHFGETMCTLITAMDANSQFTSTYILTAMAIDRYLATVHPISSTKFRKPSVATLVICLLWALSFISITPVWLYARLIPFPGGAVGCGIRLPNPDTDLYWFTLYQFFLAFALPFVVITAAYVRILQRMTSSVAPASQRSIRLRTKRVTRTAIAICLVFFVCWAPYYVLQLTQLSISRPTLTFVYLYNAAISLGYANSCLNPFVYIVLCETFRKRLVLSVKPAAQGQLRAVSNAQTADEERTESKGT

| SMILES | Ki |
| --- | --- |
| COc1ccccc1-c1ccc(CN(CCC2CCN(Cc3ccc(C)cc3)CC2)C(=O)NC(C)C)cc1 | > 1000 nM |
| Cc1ccc(CN2CCC(NC(=O)N(CC(=O)C(C)(C)O)Cc3ccc(-c4ccccc4)cc3)CC2)cc1 | > 1000 nM |
| COc1ccc(-c2ccc(CN(CC(=O)C(C)(C)O)C(=O)NC3CCN(Cc4ccc(C)cc4)CC3)cc2)cc1 | > 1000 nM |

Target: Histamine H3 receptor (Homo sapiens, UniProt Q9Y5N1)
Sequence (Q9Y5N1 whole entry): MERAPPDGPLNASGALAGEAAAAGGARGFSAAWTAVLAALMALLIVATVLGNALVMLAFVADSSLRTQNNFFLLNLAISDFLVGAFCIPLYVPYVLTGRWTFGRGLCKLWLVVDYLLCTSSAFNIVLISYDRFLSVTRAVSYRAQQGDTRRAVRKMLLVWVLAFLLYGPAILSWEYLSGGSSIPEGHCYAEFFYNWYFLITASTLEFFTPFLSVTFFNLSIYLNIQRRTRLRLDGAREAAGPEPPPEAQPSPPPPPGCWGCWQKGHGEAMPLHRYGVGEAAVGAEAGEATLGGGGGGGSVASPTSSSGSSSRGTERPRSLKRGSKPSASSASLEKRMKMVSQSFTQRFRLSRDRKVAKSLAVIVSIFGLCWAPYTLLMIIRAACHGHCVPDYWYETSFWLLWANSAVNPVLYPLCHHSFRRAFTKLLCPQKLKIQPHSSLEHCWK
Experiment: not given

| SMILES | Ki |
| --- | --- |
| COc1ccc(-c2ccc(CN(CCC3CCN(Cc4ccc(C)cc4)CC3)C(=O)NC(C)(C)CO)cc2)cc1 | 9260 nM |
| Cc1ccc(CN2CCC(CCN(Cc3ccc(-c4cccc(C#N)c4)cc3)C(=O)NC(C)(C)CO)CC2)cc1 | 1160 nM |
| COc1ccccc1-c1ccc(CN(CCC2CCN(Cc3ccc(C)cc3)CC2)C(=O)NC(C)(C)CO)cc1 | 6680 nM |
| COc1ccc(-c2ccc(CN(CCC3CCN(Cc4ccc(C)cc4)CC3)C(=O)NC(C)C)cc2)cc1 | 6510 nM |
| CC(=O)OCC(C)(C)NC(=O)N(CCC1CCN(Cc2ccc(C)cc2)CC1)Cc1ccc(-c2ccc(F)cc2)cc1 | 2080 nM |
| CCC(COC(C)=O)(COC(C)=O)NC(=O)N(CCC1CCN(Cc2ccc(C)cc2)CC1)Cc1ccc(-c2ccc(OC)cc2)cc1 | 779 nM |
| CCC(COC(C)=O)(COC(C)=O)NC(=O)N(CCC1CCN(Cc2ccc(C)cc2)CC1)Cc1ccc(-c2ccc(F)cc2)cc1 | 548 nM |
| COc1ccc(-c2ccc(CNC(=O)NC3CCN(Cc4ccc(C)cc4)CC3)cc2)cc1 | 5150 nM |
| CCC(COC(C)=O)(COC(C)=O)NC(=O)N(CCC1CCN(Cc2ccc(C)cc2)CC1)Cc1ccc(-c2cccc(C#N)c2)cc1 | 1310 nM |
| COc1ccccc1-c1ccc(CN(CC(=O)C(C)(C)O)C(=O)NC2CCN(Cc3ccc(C)cc3)CC2)cc1 | 9990 nM |
| Cc1ccc(CN2CCC(CCN(Cc3ccc(-c4cccc(C#N)c4)cc3)C(=O)NC(C)C)CC2)cc1 | 853 nM |
| CC(=O)OCC(C)(C)NC(=O)N(CCC1CCN(Cc2ccc(C)cc2)CC1)Cc1ccc(-c2cccc(C#N)c2)cc1 | 1630 nM |
| Cc1ccc(CN2CCC(NC(=O)NCc3ccc(-c4cccc(C#N)c4)cc3)CC2)cc1 | > 1000 nM |
| CCC(COC(C)=O)(COC(C)=O)NC(=O)N(CCC1CCN(Cc2ccc(C)cc2)CC1)Cc1ccc(-c2ccccc2)cc1 | 807 nM |
| CCC(CO)(CO)NC(=O)N(CCC1CCN(Cc2ccc(C)cc2)CC1)Cc1ccc(-c2ccc(F)cc2)cc1 | > 1000 nM |
| CCC(CO)(CO)NC(=O)N(CCC1CCN(Cc2ccc(C)cc2)CC1)Cc1ccc(-c2cccc(C#N)c2)cc1 | 8800 nM |

| SMILES | Ki |
| --- | --- |
| COc1ccc(-c2ccc(CN(CCC3CCN(Cc4ccc(C)cc4)CC3)C(=O)NC(C)(C)COC(C)=O)cc2)cc1 | 1010 nM |
| Cc1ccc(CN2CCC(NC(=O)NCc3ccc(-c4ccccc4)cc3)CC2)cc1 | > 1000 nM |
| Cc1ccc(CN2CCC(NC(=O)N(CC(=O)C(C)(C)O)Cc3ccc(-c4ccc(F)cc4)cc3)CC2)cc1 | 1420 nM |
| CCC(CO)(CO)NC(=O)N(CCC1CCN(Cc2ccc(C)cc2)CC1)Cc1ccc(-c2ccccc2OC)cc1 | 2140 nM |
| CCC(COC(C)=O)(COC(C)=O)NC(=O)N(CCC1CCN(Cc2ccc(C)cc2)CC1)Cc1ccc(-c2ccccc2OC)cc1 | 629 nM |
| Cc1ccc(CN2CCC(CCN(Cc3ccc(-c4ccc(F)cc4)cc3)C(=O)NC(C)(C)CO)CC2)cc1 | > 1000 nM |
| Cc1ccc(CN2CCC(CCN(Cc3ccc(-c4ccccc4)cc3)C(=O)NC(C)C)CC2)cc1 | > 1000 nM |
| COc1ccccc1-c1ccc(CN(CCC2CCN(Cc3ccc(C)cc3)CC2)C(=O)NC(C)C)cc1 | > 1000 nM |
| Cc1ccc(CN2CCC(NC(=O)N(CC(=O)C(C)(C)O)Cc3ccc(-c4ccccc4)cc3)CC2)cc1 | > 1000 nM |
| CC(=O)OCC(C)(C)NC(=O)N(CCC1CCN(Cc2ccc(C)cc2)CC1)Cc1ccc(-c2ccccc2)cc1 | 1130 nM |
| Cc1ccc(CN2CCC(NC(=O)N(CC(=O)C(C)(C)O)Cc3ccc(-c4cccc(C#N)c4)cc3)CC2)cc1 | 2800 nM |
| CCC(CO)(CO)NC(=O)N(CCC1CCN(Cc2ccc(C)cc2)CC1)Cc1ccc(-c2ccc(OC)cc2)cc1 | 899 nM |
| COc1ccc(-c2ccc(CN(CC(=O)C(C)(C)O)C(=O)NC3CCN(Cc4ccc(C)cc4)CC3)cc2)cc1 | 581 nM |
| COc1ccccc1-c1ccc(CNC(=O)NC2CCN(Cc3ccc(C)cc3)CC2)cc1 | > 1000 nM |
| COc1ccccc1-c1ccc(CN(CCC2CCN(Cc3ccc(C)cc3)CC2)C(=O)NC(C)(C)COC(C)=O)cc1 | 1050 nM |
